In assay [1] the test system is C. albicans strains CAI4 and M70. Nature of the assay: Isolation of spontaneous caspofungin-resistant mutants by direct selection on solid media containing caspofungin. To be noted: both strains CAI4 and M70; YPD plates with 4 μg/ml caspofungin (forty times the MIC). It is filed as cell-based, Candida albicans. On the procedure: (§1) Spontaneous mutants of C. albicans strains CAI4 and M70 resistant to caspofungin were isolated by direct selection on solid growth media containing 4 μg/ml (forty times the MIC) caspofungin. The frequency of formation of spontaneous caspofungin-resistant derivatives for both strains was <10^−8 mutants per viable cell. For both strains, the formation of rare shrunken slow-growing colonies on the plates with caspofungin was observed. […] After prolonged incubation for more than 10 days, a small fraction of small shrunken colonies gave rise to smooth fast-growing derivatives which were able to propagate on caspofungin-containing media after reinoculation. Only one such derivative per individual plate/culture was saved and used for further analysis. In total, 35 and 50 isolates with reduced susceptibility to caspofungin were isolated for strains CAI4 and M70, respectively. […] Details of the isolation procedure are set forth in Example 2.
Spontaneous caspofungin-resistant mutants of C. albicans strains CAI4 and M70 were isolated by plating 100 ul (˜10^8 cells) of an 18 h liquid YPD culture on YPD plates containing 4 μg/ml caspofungin. Serial dilutions of the overnight cultures were plated on the YPD plates without antibiotic selection to precisely determine starting colony counts. Selection plates were incubated for 10-14 days at 30° C. […]

In assay [2] the test system is C. albicans strains CAI4 and M70, laboratory-derived isolates with reduced susceptibility. Nature of the assay: In vitro caspofungin susceptibility testing, liquid microbroth dilution assay in RPMI-1640 (NCCLS M27-A2). The class given is cell-based. The note with it: Candida albicans; all laboratory-derived isolates (35 from CAI4, 50 from M70) selected on 4 μg/ml caspofungin. On the procedure: as §1
C. albicans strain CAI4 was purchased from ATCC (ATCC, Manassas, Va.). C. albicans strain M70 was from the Merck culture collection (MRL, Rahway, N.J.). Strains were grown on yeast extract-peptone-dextrose (YPD) medium (1% yeast extract, 2% Bacto Peptone, 2% dextrose). For growth of strain CAI4, YPD medium was supplemented by uridine (Sigma-Aldrich, St. Louis, Mo.) at 25 mg/ml. Caspofungin (Merck, Rahway, N.J.) was added directly to YPD at 4 μg/ml. […]
(Dilution methods test growth across graded concentrations, often in twofold steps.)

For orientation: MIC means the least concentration at which growth counts as inhibited. As for `CC[C@H](C)C[C@H](C)CCCCCCCCC(=O)N[C@H]1C[C@@H](O)[C@@H](NCCN)NC(=O)[C@@H]2[C@@H](O)CCN2C(=O)[C@H]([C@H](O)CCN)NC(=O)[C@H]([C@H](O)[C@@H](O)c2ccc(O)cc2)NC(=O)[C@@H]2C[C@@H](O)CN2C(=O)[C@H]([C@@H](C)O)NC1=O` [caspofungin], in assay [1], the “frequency of formation of spontaneous caspofungin-resistant derivatives” value is given as < 10^−8 mutants per viable cell. The minimal inhibitory concentration (MIC) in assay [2] is greater than 16 µg/mL.

The values above are taken from patent US10934577B2, “Assays for resistance to echinocandin-class drugs” (priority 2005, dated 2021).
